In patent publication US11000033B2, “Ketone or oxime compound, and herbicide” (NISSAN CHEMICAL CORPORATION, priority 2014, dated 2021):

What was measured:
Assay type in all cases: in vivo
[1] = tested on: Avena fatua; test: Test Example 4: herbicidal effect by soil treatment (symbol I); details: application herbicide amount 320 g/ha
Outline: (§1)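 Seeds were sown in sterilized diluvial soil, covered with about 1.5 cm of soil, and the soil surface was sprayed with a water-diluted emulsion of the compound at a predetermined rate. Plants grew in a greenhouse at 25° C. to 30° C.; effects were scored visually 3 weeks after application.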

[2] = tested on: Galium spurium; test: Test Example 5: herbicidal effect by foliage application, plastic box (symbol Q); details: 320 g/ha, 3 weeks after application
Outline: (§2)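 Seeds were sown in sterilized diluvial soil, covered with about 1.5 cm of soil and grown 14 days in a greenhouse at 25° C. to 30° C. An emulsifiable formulation diluted in water to a set rate was sprayed over foliage, and injury was scored 3 weeks later.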

[3] = tested on: Veronica persica; test: Test Example 5: herbicidal effect by foliage application, plastic box (symbol R); details: 320 g/ha, 3 weeks after application
Outline: as §2

[4] = tested on: beet; test: Test Example 4: effect on crop by soil treatment (symbol f); details: application herbicide amount 320 g/ha
Outline: (§3)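 Grown at 25° C. to 30° C. in a greenhouse, the crops came from seed sown spot-wise in sterilized diluvial soil under roughly 1.5 cm of covering soil.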

[5] = tested on: Echinochloa crus-galli var. crus-galli; test: Test Example 4: herbicidal effect by soil treatment (symbol H); details: application herbicide amount 320 g/ha
Outline: as §1

[6] = tested on: Abutilon theophrasti; test: Test Example 5: herbicidal effect by foliage application, plastic box (symbol M); details: 320 g/ha, 3 weeks after application
Outline: as §2

[7] = tested on: directly sowed rice plant; test: Test Example 3: effect on crop by foliage application, Wagner pot (symbol b); details: application herbicide amount 320 g/ha
Outline: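 Alluvial soil in a 1/10000-are Wagner pot was flooded to a water depth of 0.1–0.5 cm. Echinochloa crus-galli var. crus-galli, Leptochloa chinensis, Cyperus difformis and rice were sown into it and grown in a greenhouse at 25–30 °C.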

[8] = tested on: rapeseed; test: Test Example 4: effect on crop by soil treatment (symbol g); details: application herbicide amount 320 g/ha
Outline: as §3

[9] = tested on: Lolium multiflorum Lam.; test: Test Example 4: herbicidal effect by soil treatment (symbol K); details: application herbicide amount 320 g/ha
Outline: as §1

[10] = tested on: Lolium multiflorum Lam.; test: Test Example 5: herbicidal effect by foliage application, plastic box (symbol K); details: 320 g/ha, 3 weeks after application
Outline: as §2

[11] = tested on: Apera spica-venti; test: Test Example 4: herbicidal effect by soil treatment (symbol L); details: application herbicide amount 320 g/ha
Outline: as §1

[12] = tested on: Digitaria ciliaris; test: Test Example 4: herbicidal effect by soil treatment (symbol F); details: application herbicide amount 320 g/ha
Outline: as §1

[13] = tested on: rice; test: Test Example 4: effect on crop by soil treatment (symbol b); details: application herbicide amount 320 g/ha
Outline: as §3

[14] = tested on: Alopecurus myosuroides; test: Test Example 4: herbicidal effect by soil treatment (symbol J); details: application herbicide amount 320 g/ha
Outline: as §1

[15] = tested on: rapeseed; test: Test Example 5: effect on crop by foliage application, plastic box (symbol g); details: 320 g/ha, 3 weeks after application
Outline: (§4)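 Foliage-application test plants come from spot sowing in sterilized diluvial soil under a soil layer of about 1.5 cm, grown at 25° C. to 30° C. in a greenhouse.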

[16] = tested on: Apera spica-venti; test: Test Example 5: herbicidal effect by foliage application, plastic box (symbol L); details: 320 g/ha, 3 weeks after application
Outline: as §2

[17] = tested on: Digitaria ciliaris; test: Test Example 5: herbicidal effect by foliage application, plastic box (symbol F); details: 320 g/ha, 3 weeks after application
Outline: as §2

[18] = tested on: Chenopodium album; test: Test Example 5: herbicidal effect by foliage application, plastic box (symbol O); details: 320 g/ha, 3 weeks after application
Outline: as §2

[19] = tested on: Stellaria media; test: Test Example 5: herbicidal effect by foliage application, plastic box (symbol P); details: 320 g/ha, 3 weeks after application
Outline: as §2

[20] = tested on: Avena fatua; test: Test Example 5: herbicidal effect by foliage application, plastic box (symbol I); details: 320 g/ha, 3 weeks after application
Outline: as §2

[21] = tested on: Amaranthus retroflexus; test: Test Example 5: herbicidal effect by foliage application, plastic box (symbol N); details: 320 g/ha, 3 weeks after application
Outline: as §2

[22] = tested on: wheat; test: Test Example 5: effect on crop by foliage application, plastic box (symbol e); details: 320 g/ha, 3 weeks after application
Outline: as §4

[23] = tested on: Monochoria vaginalis; test: Test Example 2: herbicidal activity, application during weed generation in submerged conditions (symbol C); details: Table 23; application herbicide amount 320 g/ha; grade 0-5 by criteria of Test Example 1
Outline: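 Compound was applied as a water-diluted emulsion into the standing water of flooded pots (4 cm) once co-sown weeds reached one to two leaves. Greenhouse temperature was 25° C. to 30° C., soil was alluvial, and each species was rated visually after 3 weeks.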

SMILES: COc1ccc(-c2cc(C)c(C3=C(O)CC(CC(C)=O)C3=O)c(C)c2)cc1 (centres unmarked) [7-006]
- Herbicidal effect grade, I: Avena fatua [1]: 0 (Herbicidal ratio of 5% or lower (almost no effect))
- Q: Galium spurium, herbicidal effect (criteria of Test Example 1) [2]: 0 (Herbicidal ratio of 5% or lower (almost no effect))
- R: Veronica persica, herbicidal effect (criteria of Test Example 1) [3]: 0 (Herbicidal ratio of 5% or lower (almost no effect))
- Effect on crop grade, f: beet [4]: 0 (Herbicidal ratio of 5% or lower (almost no effect))
- Herbicidal effect grade, H: Echinochloa crus-galli var. crus-galli [5]: 0 (Herbicidal ratio of 5% or lower (almost no effect))
- M: Abutilon theophrasti, herbicidal effect (criteria of Test Example 1) [6]: 0 (Herbicidal ratio of 5% or lower (almost no effect))
- effect on crop b (directly sowed rice plant), grade 0-5 [7]: 5 (Herbicidal ratio of 90% or more (almost completely withered))
- Effect on crop grade, g: rapeseed [8]: 0 (Herbicidal ratio of 5% or lower (almost no effect))
- Herbicidal effect grade, K: Lolium multiflorum Lam. [9]: 2 (Herbicidal ratio of 20% or higher and lower than 40%)
- K: Lolium multiflorum Lam., herbicidal effect (criteria of Test Example 1) [10]: 5 (Herbicidal ratio of 90% or more (almost completely withered))
- Herbicidal effect grade, L: Apera spica-venti [11]: 0 (Herbicidal ratio of 5% or lower (almost no effect))
- Herbicidal effect grade, F: Digitaria ciliaris [12]: 0 (Herbicidal ratio of 5% or lower (almost no effect))
- Effect on crop grade, b: directly sowed rice plant [13]: 3 (Herbicidal ratio of 40% or higher and lower than 70%)
- Herbicidal effect grade, J: Alopecurus myosuroides [14]: 0 (Herbicidal ratio of 5% or lower (almost no effect))
- g: rapeseed, effect on crop (criteria of Test Example 1) [15]: 3 (Herbicidal ratio of 40% or higher and lower than 70%)
- L: Apera spica-venti, herbicidal effect (criteria of Test Example 1) [16]: 4 (Herbicidal ratio of 70% or higher and lower than 90%)
- F: Digitaria ciliaris, herbicidal effect (criteria of Test Example 1) [17]: 5 (Herbicidal ratio of 90% or more (almost completely withered))
- O: Chenopodium album, herbicidal effect (criteria of Test Example 1) [18]: 3 (Herbicidal ratio of 40% or higher and lower than 70%)
- P: Stellaria media, herbicidal effect (criteria of Test Example 1) [19]: 0 (Herbicidal ratio of 5% or lower (almost no effect))
- I: Avena fatua, herbicidal effect (criteria of Test Example 1) [20]: 3 (Herbicidal ratio of 40% or higher and lower than 70%)
- N: Amaranthus retroflexus, herbicidal effect (criteria of Test Example 1) [21]: 0 (Herbicidal ratio of 5% or lower (almost no effect))
- e: wheat, effect on crop (criteria of Test Example 1) [22]: 0 (Herbicidal ratio of 5% or lower (almost no effect))
- Herbicidal effect grade, C: Monochoria vaginalis [23]: 0 (Herbicidal ratio of 5% or lower (almost no effect))
